Values of other authors in patent publication US6596884B2, “Synthesis of hydrogen peroxide” (University of Pittsburgh, priority 1998, dated 2003).

Conditions: obtained by extrapolation of the data from Santacesaria et al., Ind. Eng. Chem. Res., 1994, 33, 277

## CCc1ccc2c(c1)C(=O)c1ccccc1C2=O [Entry 2-EtAQ]
  kc: 0.47^(3) cm^3/(g s)
